Experimental findings from the supplement of paper PMC8239392 are described below.

The test system of assay [1] is TAZ-DEP MCF10A-TAZ tumor cells. Put plainly: cell viability relative to DMSO control; higher = less cytotoxic; extreme values may be limits of the assay. The settings on record: 72 h. The method, then:
(§1)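 TAZ-dependent (grown with 2 ug/ml dox) and TAZ-independent MCF10A-TAZ tumor-derived breast cancer stem-like cells were plated in 384-well plates and treated with serially diluted compounds (0.65-10 uM) for 72 h. Viability was read by resazurin assay and expressed as % of DMSO-treated control.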

For assay [2], the system named is TAZ-IND MCF10A-TAZ tumor cells. The assay is described as above. Conditions: 72 h. The method, then:
as §1

For the compound `C=CC(=O)Nc1cccc(Oc2nc(Nc3ccc(N4CCN(C)CC4)cc3OC)ncc2Cl)c1` [WZ4002], the cell viability (commonly a read-out of living cells in per cent, often relative to untreated cells) amounted to 90% in assay [1] (0.65 µM); 72% in assay [1] (1.25 µM); 67% in assay [1] (2.5 µM); 33% in assay [1] (5 µM); 23% in assay [1] (10 µM); 96% in assay [2] (0.65 µM). Also, the cell viability in assay [2] (1.25 µM) is 97%; in assay [2] (2.5 µM), 96%; in assay [2] (5 µM), 75%; in assay [2] (10 µM), 68%.
`CN(C)CCSSCCNC(=O)C1CCN(C(=O)CSc2ccc(Cl)cc2)CC1` [6H05]: the cell viability turned out to be 96% in assay [1] (0.65 µM); 91% in assay [1] (1.25 µM); 89% in assay [1] (2.5 µM); 66% in assay [1] (5 µM); 23% in assay [1] (10 µM); 99% in assay [2] (0.65 µM). The cell viability in assay [2] (1.25 µM) worked out at 98%; in assay [2] (2.5 µM) it was 92%; in assay [2] (5 µM) it was 88%; in assay [2] (10 µM), 83%.
For the compound `C[C@H]1COC2=C1C(=O)C(=O)c1c2ccc2c1CCCC2(C)C` [Cryptotanshinone], the cell viability in assay [1] (0.65 µM) came out at 96%; in assay [1] (1.25 µM), 94%; in assay [1] (2.5 µM), 92%; in assay [1] (5 µM), 74%; in assay [1] (10 µM), 30%; in assay [2] (0.65 µM) it was 96%. Besides, the cell viability worked out at 97% in assay [2] (1.25 µM), 93% in assay [2] (2.5 µM), 87% in assay [2] (5 µM) and 79% in assay [2] (10 µM).
`O=C(O)c1cc2cccc([N+](=O)[O-])c2[nH]1`: the cell viability in assay [1] (0.65 µM) worked out at 100%; in assay [1] (1.25 µM), 98%; in assay [1] (2.5 µM), 87%; in assay [1] (5 µM), 47%; in assay [1] (10 µM), 2%; in assay [2] (0.65 µM), 100%. Besides, the cell viability in assay [2] (1.25 µM) stood at 100%; in assay [2] (2.5 µM), 100%; in assay [2] (5 µM), 97%; in assay [2] (10 µM), 70%.
For the compound `CNCc1ccc(-c2cc(-c3nc(-c4ccc(S(=O)(=O)C(C)C)cc4)cnc3N)on2)cc1` [VE-822], the cell viability came out at 55% in assay [1] (0.65 µM); 37% in assay [1] (1.25 µM); 29% in assay [1] (2.5 µM); 23% in assay [1] (5 µM); 20% in assay [1] (10 µM); 96% in assay [2] (0.65 µM). Further, the cell viability in assay [2] (1.25 µM) was 87%; in assay [2] (2.5 µM), 81%; in assay [2] (5 µM), 75%; in assay [2] (10 µM), 69%.
`CC(C)N(CCCNC(=O)Nc1ccc(C(C)(C)C)cc1)C[C@H]1O[C@@H](n2cc(Br)c3c(N)ncnc32)[C@H](O)[C@@H]1O` [SGC 0946]: the cell viability in assay [1] (0.65 µM) is 89%; in assay [1] (1.25 µM), 83%; in assay [1] (2.5 µM) it was 78%; in assay [1] (5 µM) it was 63%; in assay [1] (10 µM), -1%; in assay [2] (0.65 µM), 94%. Further, the cell viability in assay [2] (1.25 µM) turned out to be 89%; in assay [2] (2.5 µM), 79%; in assay [2] (5 µM), 34%; in assay [2] (10 µM), 1%.
On to `C#Cc1cccc(Nc2ncnc3cc4c(cc23)OCCOCCOCCO4)c1` [Icotinib], for which the cell viability was 100% in assay [1] (0.65 µM); 100% in assay [1] (1.25 µM); 100% in assay [1] (2.5 µM); 89% in assay [1] (5 µM); 34% in assay [1] (10 µM); 100% in assay [2] (0.65 µM). Further, the cell viability in assay [2] (1.25 µM) worked out at 100%; in assay [2] (2.5 µM), 100%; in assay [2] (5 µM), 100%; in assay [2] (10 µM), 96%.
As for `O=C1NC(=O)/C(=C/c2ccc(-c3ccc(F)cc3O)o2)S1`, the cell viability turned out to be 62% in assay [1] (0.65 µM); 53% in assay [1] (1.25 µM); 51% in assay [1] (2.5 µM); 46% in assay [1] (5 µM); 43% in assay [1] (10 µM); 72% in assay [2] (0.65 µM). Further, the cell viability in assay [2] (1.25 µM) was determined as 75%; in assay [2] (2.5 µM), 72%; in assay [2] (5 µM), 67%; in assay [2] (10 µM) it was 63%.
For `CC(C)(C)c1ccc(S(=O)(=O)NCc2ccc(C(=O)Nc3cccnc3)cc2)cc1` [STF-31], the cell viability in assay [1] (0.65 µM) stood at 100%; in assay [1] (1.25 µM) it was 100%; in assay [1] (2.5 µM) it was 100%; in assay [1] (5 µM), 99%; in assay [1] (10 µM), 98%; in assay [2] (0.65 µM), 99%. Further, the cell viability was determined as 100% in assay [2] (1.25 µM), 100% in assay [2] (2.5 µM), 97% in assay [2] (5 µM) and 96% in assay [2] (10 µM).
Regarding `CCCCCCCCCCCC1=C(O)C(=O)C=C(O)C1=O` [Embelin], the cell viability stood at 89% in assay [1] (0.65 µM); 84% in assay [1] (1.25 µM); 75% in assay [1] (2.5 µM); 57% in assay [1] (5 µM); 28% in assay [1] (10 µM); 89% in assay [2] (0.65 µM). Also, the cell viability stood at 90% in assay [2] (1.25 µM), 90% in assay [2] (2.5 µM), 89% in assay [2] (5 µM) and 82% in assay [2] (10 µM).
For `COc1cc(F)c(F)c(Nc2ccc(I)cc2F)c1NS(=O)(=O)C1(C[C@H](O)CO)CC1` [Refametinib (RDEA119, Bay 86-9766)], the cell viability was 53% in assay [1] (0.65 µM); 51% in assay [1] (1.25 µM); 51% in assay [1] (2.5 µM); 51% in assay [1] (5 µM); 50% in assay [1] (10 µM); 84% in assay [2] (0.65 µM). Further, the cell viability in assay [2] (1.25 µM) amounted to 82%; in assay [2] (2.5 µM) it was 80%; in assay [2] (5 µM) it was 77%; in assay [2] (10 µM) it was 71%.
For the compound `CCn1c2ccccc2c2cc(CNCc3ccccc3OC)ccc21` [HLCL-61], the cell viability in assay [1] (0.65 µM) worked out at 100%; in assay [1] (1.25 µM) it was 100%; in assay [1] (2.5 µM), 100%; in assay [1] (5 µM), 89%; in assay [1] (10 µM), 59%; in assay [2] (0.65 µM), 97%. Moreover, the cell viability in assay [2] (1.25 µM) was 99%; in assay [2] (2.5 µM) it was 100%; in assay [2] (5 µM), 100%; in assay [2] (10 µM), 95%.
With `Cc1c(Cc2ccc3ccccc3n2)c2cc(F)ccc2n1CC(=O)O`, the cell viability in assay [1] (0.65 µM) was determined as 90%; in assay [1] (1.25 µM), 82%; in assay [1] (2.5 µM) it was 69%; in assay [1] (5 µM), 57%; in assay [1] (10 µM), 33%; in assay [2] (0.65 µM), 90%. Besides, the cell viability in assay [2] (1.25 µM) was 94%; in assay [2] (2.5 µM), 90%; in assay [2] (5 µM) it was 77%; in assay [2] (10 µM) it was 55%.
With `CCc1nc(N)nc(N)c1-c1ccc(Cl)cc1` [Pyrimethamine], the cell viability in assay [1] (0.65 µM) turned out to be 100%; in assay [1] (1.25 µM), 100%; in assay [1] (2.5 µM), 98%; in assay [1] (5 µM) it was 85%; in assay [1] (10 µM), 56%; in assay [2] (0.65 µM), 100%. In addition, the cell viability came to 100% in assay [2] (1.25 µM), 100% in assay [2] (2.5 µM), 100% in assay [2] (5 µM) and 98% in assay [2] (10 µM).
